The test system of this assay is P. falciparum 3D7 growth, pLDH absorbance. The assay is described as follows: P. falciparum 3D7 growth inhibition, dose response, strain 3D7 (AID 2305).

pIC50: −log10 of the molar value. Values joined by “and” are separate entries in the source; they are usually repeats but may differ in a detail not shown here. Equal values may be shown once.

One may read the pIC50 as −log10 of the IC50, conventionally taken in molar units. A higher pIC50 goes with a small IC50. As for `COc1cc2c(cc1S(=O)(=O)c1ccc(COc3ccc(C(F)(F)F)cc3)cc1)CNCC2`, the pIC50 is 6.12.

The molecule `Nc1ccc(-c2nc3ccc(Cc4ccc5nc(-c6ccc(N)cc6)[nH]c5c4)cc3[nH]2)cc1` gave a pIC50 of 6.29.

In turn, `Cc1cc(NC(=O)Nc2ccc3nccc(N4CCN(C)CC4)c3c2)ccc1Br` showed a pIC50 of 7.05.

The molecule `O=C(Nc1n[nH]c2nc(-c3ccco3)c(Br)cc12)c1ccc(CN2CCCC2)cc1` gave a pIC50 of 6.10.

`Cc1cc(O)c(CN(C)Cc2ccc3c(c2)OCO3)cc1C(C)C` gave a pIC50 of 6.13.

`Cc1cccc2[nH]c(-c3ccc(-c4cccc(CN5CCC(CCN6CCCCC6)CC5)c4)s3)nc12` had a pIC50 of 6.85.

The molecule `Cc1[nH]c2ccc(O)cc2c1C1CCN(CCCCCNC(=O)/C=C/c2ccc(Cl)c(Cl)c2)CC1` gave a pIC50 of 6.11.

Molecule `CCc1c(C)nc(-n2nc(C)cc2NC(=O)c2cccc3ccccc23)[nH]c1=O` had a pIC50 of 6.17.

The molecule `COc1cc(NC(=O)N2CCOC(CCN3CCC(c4ccccc4)CC3)(c3ccc(Cl)c(Cl)c3)C2)cc(OC)c1` (stereo unspecified) gave a pIC50 of 6.54.

As to `O=C(NCc1ccc(S(=O)(=O)N2CCC(CN3CCC(c4c[nH]c5ccccc45)CC3)CC2)s1)c1ccccc1`, the negative-log IC50 (pIC50) was 6.08.

Turning to `CCOc1c(Cl)cc(Cl)cc1CNCCCNc1nc2ccccc2[nH]1`, the negative logarithm of the IC50 (pIC50) was 6.08.

For the molecule `COc1ccc(C=CC(=O)NC2CCC(CN3CCC(c4c[nH]c5ccccc45)CC3)CC2)cc1OC` (stereo unspecified), the negative-log IC50 (pIC50) was 6.08 and 6.10.

In the case of `COc1ccc(NC(=O)/C=C/c2ccccc2Cl)cc1OCCN1CCC(O)(c2ccc(Cl)c(C(F)(F)F)c2)CC1`, the pIC50 is 6.19.

In turn, `NC1=NC(c2ccccc2)(c2ccccn2)C(=O)N1CCCc1ccccc1` (stereo unspecified) gave a negative logarithm of the IC50 (pIC50) of 5.98.

Regarding `CN(CCCNC(=S)NC12CC3CC(CC(C3)C1)C2)CCCNc1ccnc2cc(Cl)ccc12`, the pIC50 was 6.92.

As to `CCC(CSC1CCCCC1)N(C)CCN(C)C(CC)CSC1CCCCC1` (stereo unspecified), the pIC50 is 6.51.

The molecule `Nc1nc(N)c2c(ccc3[nH]c(-c4ccccc4Cl)nc32)n1` had a negative logarithm of the IC50 (pIC50) of 6.64.

Take `Nc1cccc(CNCc2cccc(-c3cccc(-c4nc5ccc(C(F)(F)F)cc5[nH]4)c3)c2)c1`: the negative logarithm of the IC50 (pIC50) was 6.29.

Consider `CCOc1ccc2c(c1)N(C(=O)C=Cc1ccccc1)C(C)(C)c1ssc(=S)c1-2`, for which the negative-log IC50 (pIC50) is 5.94.

In turn, `CCCCCc1cc(O)c2c(c1)OC(C)(C)C=C2C1=CCN(Cc2ccsc2)CC1` gave a pIC50 of 6.02.

`CN1C(=O)C(=O)N(CCCCCON=C(N)N)C1=S` gave a pIC50 of 6.70.

Molecule `CC1(C)CN(CCC2CCC(NC(=O)/C=C/c3ccccc3F)CC2)Cc2ccc(C#N)cc21` (stereo unspecified) showed a pIC50 of 5.95.

Molecule `O=C(N[C@@H](Cc1ccccc1)[C@H](O)CNC1CCCc2ccccc21)c1cc(C2CCCC2)cc(N2CCCC2=O)c1` (stereo partly specified) had a negative logarithm of the IC50 (pIC50) of 6.80.

`O=C(Nc1cccc(-c2nc3ccccc3s2)c1)c1ccccc1[N+](=O)[O-]` had a pIC50 of 6.11.

On to `Cc1cccc2[nH]c(-c3cccc(-c4cccc(CN5CCN(c6ccc(C#N)cn6)CC5)c4)c3)nc12`, for which the pIC50 was 5.94.

The molecule `COc1cc2nccc(Nc3ccc(Oc4ccccc4)cc3)c2cc1OC` showed a negative-log IC50 (pIC50) of 6.17.

Consider `Cc1cc(NC(=O)NCCN2CCC(NC(=O)c3cccc(Br)c3)C2)c2ccccc2n1` (stereo unspecified), for which the pIC50 was 6.26.

For the molecule `COC(=O)Nc1cc(C(F)(F)F)ccc1N1CCCC(NS(=O)(=O)c2ccc(C(C)(C)C)cc2)C1` (stereo unspecified), the pIC50 is 6.42.

Take `CC(C)C[C@H](NC(=O)c1ccc(OCCN2CCOCC2)cc1)C(=O)N[C@H](/C=N/N1CCNC1=O)CCc1ccccc1`: the pIC50 was 6.43.

As for `Cc1noc(C)c1-c1cccc(CNCc2cccc(-c3ccc(-c4nc5ccccc5[nH]4)s3)c2)c1`, the negative-log IC50 (pIC50) is 6.70.

Turning to `CC(=O)Nc1nc(C(=O)Nc2ccc(-c3cccc(-c4nc5c(C)cccc5[nH]4)c3)cc2)cs1`, the pIC50 is 6.64.

Molecule `CC(C)(CNCc1ccc(OC(F)(F)F)cc1)c1nc(-c2ccc(Cl)c(O)c2)c(-c2ccncc2)[nH]1` gave a pIC50 of 6.26.

The molecule `CC1CCN(CC[C@H]2CCCN2S(=O)(=O)c2cccc(NC(=O)c3ccc(-c4ccccc4)cc3)c2)CC1` gave a negative logarithm of the IC50 (pIC50) of 5.90.

`CCS(=O)(=O)Nc1ccc2[nH]cc(C3CCN(CCC4CCN(C(=O)/C=C/c5ccc(Cl)c(Cl)c5)CC4)CC3)c2c1` had a negative-log IC50 (pIC50) of 6.28.

Regarding `Nc1ncc(-c2ccsc2)cc1-c1nc2ccccc2[nH]1`, the pIC50 was 6.07.

`CC(C)N(Cc1ccccc1)C(=O)CN1C(=O)COc2ccc(S(=O)(=O)N3CCCCCC3)cc21` gave a pIC50 of 6.60.

Molecule `O=S(=O)(c1cc(Cl)sc1Cl)N(CCC(O)(C(F)(F)F)C(F)(F)F)Cc1cccc(O)c1` showed a pIC50 of 6.13.

Molecule `Cc1ccc(NC(=O)NC2CCN(c3ccnc4cc(Cl)ccc34)CC2)cc1` had a pIC50 of 6.49.

`COc1ccc(O)c(C(=O)c2cc(C#N)c(=O)n(-c3ccc(Oc4ccccc4)cc3)c2)c1`: the pIC50 was 6.13.

`COc1ccccc1Cn1ccnc1SCC(=O)Nc1cccc(C(F)(F)F)c1`: the pIC50 was 6.04.

The molecule `Cc1cccc(CN2CCC(C(=O)Nc3ccc(-c4nc5ccccc5[nH]4)cc3)CC2)n1` showed a pIC50 of 6.04.

In turn, `COc1ccc(C(=O)[C@H]2C[C@@H]2CN(C)CCC(O)c2ccc(Cl)c(Cl)c2)cc1` (stereo partly specified) had a pIC50 of 6.06.

Regarding `CCCCOC(=O)NCCCC[C@H](NC(=O)OC(C)(C)C)C(=O)N[C@H](C(=O)OC(c1ccccc1)c1ccccc1)[C@H]1O[C@@H](n2ccc(=O)[nH]c2=O)[C@@H]2OC(C)(C)O[C@@H]21`, the negative-log IC50 (pIC50) was 5.96.

`CCOC(=O)c1c[nH]c2c(ccc3ccccc32)c1=O` had a negative-log IC50 (pIC50) of 6.80.

For the molecule `CN(c1ncc(-c2cccc(CNCc3ccccc3O)c2)cn1)C1CCCCC1`, the pIC50 was 6.09.

`CCN1CCN(c2ccc(NC(=O)c3cc4c(C)nn(-c5ccccc5)c4s3)cc2C)CC1` gave a negative-log IC50 (pIC50) of 6.12.

For the molecule `CCOc1ccc2nccc([C@@H](O)[C@@H]3C[C@@H]4CCN3C[C@@H]4CC)c2c1`, the pIC50 is 6.96 and 6.21.

In turn, `Cc1sc(CNCCCNc2cc(=O)c3ccccc3[nH]2)c(C(F)(F)F)c1C` gave a negative-log IC50 (pIC50) of 6.14.

The molecule `Cc1ccccc1Nc1nc(Nc2ccccc2)c2ccccc2n1` gave a negative logarithm of the IC50 (pIC50) of 6.00.

Turning to `COc1ccc2nccc([C@@H](O)CN3CCC(NCc4ccc5nc[nH]c(=O)c5c4)CC3)c2c1`, the negative-log IC50 (pIC50) was 6.04.

`COc1ccc2c(NN=Cc3cccc(C)n3)ccnc2c1` had a pIC50 of 6.12.

`COc1ccc(CCNCCCCCCNCCc2ccc(-c3ccccc3)cc2)cc1OC` showed a pIC50 of 6.02.

As for `CN1CCCN(Cc2cccc(-c3ccc(NS(=O)(=O)c4cccc5cccnc45)cc3)c2)CC1`, the negative logarithm of the IC50 (pIC50) is 6.02.

`Cc1nc(-c2cccc(Nc3nccc(NCC(O)c4ccccc4C(F)(F)F)n3)c2)cs1` (stereo unspecified) gave a pIC50 of 6.08.

As for `CN(C)Cc1ccc(-c2cc3ncnc(Nc4ccc(OCc5cccc(F)c5)c(Cl)c4)c3s2)[nH]1`, the negative-log IC50 (pIC50) is 6.77.

`Cc1ccc(NC(=S)N2CCCN(CCCCCNC(=O)/C=C/c3ccc(Cl)c(Cl)c3)CC2)cc1Cl` had a negative logarithm of the IC50 (pIC50) of 6.04.

Regarding `COc1ccccc1N1CCN(C(C(=O)NCc2ccc3c(c2)OCO3)c2ccc(C)cc2)CC1` (stereo unspecified), the pIC50 was 6.01.

As for `COc1ccc(-c2ccc(NC(=O)c3ccc(Cl)cc3)cc2)cc1CN1CCN(C)CC1`, the negative-log IC50 (pIC50) is 6.09.

Consider `CC(C)[C@H](NCC(=O)c1ccccc1)C(=O)O`, for which the pIC50 was 6.11.

Turning to `O=C(NCCc1ccccc1F)c1ccc(N2CCN(c3ccncc3)CC2)cn1`, the pIC50 was 5.97.

Consider `O=C(Nc1cccc(C(F)(F)F)c1)NC1CCN(c2ccnc3cc(Cl)ccc23)CC1`, for which the pIC50 is 6.54.

Take `Cc1cc(NC2CCCC2)nc(Nc2ccc(F)cc2)n1`: the pIC50 was 6.33.

Consider `O=C(Nc1ccc(C(=O)OC[C@@H]2CCCN3CCCC[C@H]23)cc1)c1ccc(Cl)c(Cl)c1`, for which the pIC50 is 6.14.

`CCc1nc2c(N)nc(N)nc2nc1-c1ccc(OC)cc1` had a negative-log IC50 (pIC50) of 5.92.

For `FC(F)(F)Oc1ccc(Nc2cc(-c3ccncc3)nc(-c3cccnc3)n2)cc1`, the pIC50 was 6.17.

The molecule `COC(=O)c1cccc(C#CCCOCCCCCCNC[C@H](O)c2cc(Cl)c(N)c(Cl)c2)c1` gave a negative logarithm of the IC50 (pIC50) of 6.11.

For the molecule `COc1ccc2nccc(N3CCN(CCNCc4ccc5c(n4)NC(=O)CS5)CC3)c2n1`, the pIC50 was 6.08.

In turn, `CCCCN(CCCC)C(=N)c1cccc2c1CCCC2` gave a negative logarithm of the IC50 (pIC50) of 5.81.

`COC(=O)C(C)NCC(=O)c1ccccc1` (stereo unspecified) gave a negative-log IC50 (pIC50) of 6.92.

The molecule `O=C(C=Cc1ccc(Cl)c(Cl)c1)NCCCCCN1CCCC(CCCNC(=O)[C@@H]2C[C@H]2c2ccccc2)C1` (stereo partly specified) had a pIC50 of 5.95.

Molecule `Nc1nc(N)c2cc(S(=O)(=O)c3ccc4ccccc4c3)ccc2n1` had a pIC50 of 7.40.

`O=C(O)c1ccc(-c2cnc3ccc(NC4CCC(O)CC4)nn23)cc1` (stereo unspecified) gave a pIC50 of 6.00.

The molecule `CN(C)CCOc1ccc2c(=O)cc(CCc3cccc(F)c3F)n(CC(=O)N(C)Cc3ccc(-c4ccc(C(F)(F)F)cc4)cc3)c2c1` showed a pIC50 of 5.92.

In turn, `CCc1ccc(C(=O)NC(=O)c2ccccc2O)cc1` gave a pIC50 of 6.21.

`Cc1ccccc1C1CCN(C2CCC(NC(=O)/C=C/c3cc(F)ccc3C(F)(F)F)CC2)CC1` (stereo unspecified) had a negative logarithm of the IC50 (pIC50) of 6.02.

`CO/C(=C\C=C/c1cc2cc(Cl)c(Cl)cc2[nH]1)C(=O)NC1CC(C)(C)N(C)C(C)(C)C1`: the negative-log IC50 (pIC50) is 6.08.

Take `Cc1ccc2nc(C)n(C3CCN(C(=O)C4(c5ccccc5)CC4)CC3)c2c1`: the negative-log IC50 (pIC50) was 6.09.

`CCOc1cc(C(=O)NCCN2CCCCC2)ccc1-c1nc2ccc(Cl)cc2[nH]1` gave a pIC50 of 5.97.

Consider `CCCCN(Cc1cc(Cl)c(OC)c(OC)c1)c1ccc(C(O)(C(F)(F)F)C(F)(F)F)cc1`, for which the negative-log IC50 (pIC50) is 6.72.

`CCCC(=O)c1cnc2c(OCCCc3cnc[nH]3)cccc2c1Nc1c(C)cccc1C` gave a pIC50 of 6.47.

Molecule `Cc1ccnc(-n2c(C)cc(C=C3SC(=Nc4ccccc4)N(Cc4ccco4)C3=O)c2C)c1` had a negative logarithm of the IC50 (pIC50) of 6.62.

In turn, `O=C(N[C@H]1CCN(Cc2ccc(OC3CCN(Cc4ccccc4)CC3)c(Br)c2)C1)c1ccc(Cl)c(Cl)c1` had a pIC50 of 6.11.

For `O=C(NC1CCCCC1)N(Cc1ccc(-c2cccc(CNC3CCCC3)c2)cc1)C1CCN(Cc2ccccc2)CC1`, the pIC50 was 6.11.

In the case of `Nc1nccc2ccc(-c3ccc(OCc4ccccc4)cc3)cc12`, the pIC50 is 6.66.

Turning to `CCC(C)(C)C1CCc2[nH]c3ccccc3c(=O)c2C1` (stereo unspecified), the pIC50 was 6.42.

`COCCNCc1cccc(-c2cc3nccc(Nc4ccc(Oc5ccccc5)cc4)c3cc2Cl)c1` showed a negative logarithm of the IC50 (pIC50) of 5.86.

These data come from PubChem BioAssay AID2305 (GlaxoSmithKline (GSK), 2010).
